From PubChem BioAssay AID234 (DTP/NCI, 2004)
“And” between values parts separate entries of the source, which are not always exact repeats. Equal entries are not always repeated. Inconclusive results are not listed.

System: C3AKF1 mice, hamster liver cystadenocarcinoma s.c., tumor weight T/C
Experiment: NCI In Vivo Anticancer Drug Screen. Data for tumor model Cystadenocarcinoma, Liver (No. 1) (Hamster) (subcutaneous) in C3AKF1 (CHKRF1) mice
Settings: endpoint: mean tumor weight, schedule: Q01DX010 (ip), higher = larger tumour
Method: The antitumor activity of compounds was measured in mice bearing transplantable tumors. Survival or tumor size were measured and the results are expressed as the measurement made in the treated group (T) divided by the measurement made in the vehicle treated control group (C). The tumor model used in this assay is Cystadenocarcinoma, Liver (No. 1) (Hamster) (subcutaneous) in C3AKF1 (CHKRF1) mice

[1] = dose: 20.0 mg/kg/injection, vehicle: carboxymethylcellulose (CMC)
[2] = dose: 40.0 mg/kg/injection, vehicle: carboxymethylcellulose (CMC)
[3] = dose: 37.5 mg/kg/injection, vehicle: carboxymethylcellulose (CMC)
[4] = dose: 75.0 mg/kg/injection, vehicle: carboxymethylcellulose (CMC)
[5] = dose: 62.5 mg/kg/injection, vehicle: carboxymethylcellulose (CMC)
[6] = dose: 125.0 mg/kg/injection, vehicle: carboxymethylcellulose (CMC)
[7] = dose: 50.0 mg/kg/injection, vehicle: carboxymethylcellulose (CMC)
[8] = dose: 15.0 mg/kg/injection, vehicle: carboxymethylcellulose (CMC)
[9] = dose: 30.0 mg/kg/injection, vehicle: carboxymethylcellulose (CMC)
[10] = dose: 100.0 mg/kg/injection, vehicle: carboxymethylcellulose (CMC)
[11] = dose: 250.0 mg/kg/injection, vehicle: carboxymethylcellulose (CMC)
[12] = dose: 10.0 mg/kg/injection, vehicle: carboxymethylcellulose (CMC)
[13] = dose: 12.0 mg/kg/injection, vehicle: saline

With `C=CC(=O)NCNC(=O)C=C` the T/C (dose: 15.0 mg/kg/injection, vehicle: saline) was 66 % of control, the T/C (dose: 30.0 mg/kg/injection, vehicle: saline) was 119 % of control and the T/C (dose: 60.0 mg/kg/injection, vehicle: saline) was 62 % of control. For the same compound, the T/C (dose: 120.0 mg/kg/injection, vehicle: saline) was 77 % of control.

For `CCOC(=O)Sc1ncnc2nc[nH]c12`, the T/C (dose: 14.0 mg/kg/injection, vehicle: carboxymethylcellulose (CMC)) was 87 % of control, the T/C (dose: 28.0 mg/kg/injection, vehicle: carboxymethylcellulose (CMC)) was 84 % of control and the T/C (dose: 56.0 mg/kg/injection, vehicle: carboxymethylcellulose (CMC)) was 86 % of control.

`Cn1c(=O)c2[nH]c(CCCc3nc4c([nH]3)c(=O)n(C)c(=O)n4C)nc2n(C)c1=O` was tested, and the T/C [1] was 101 % of control and the T/C [2] was 68 % of control.

With `NNc1nncc2ccccc12` the T/C [3] was 111 % of control and the T/C [4] was 94 % of control.

For `Nc1ccc2ccccc2c1N=Nc1ccccc1`, the T/C [5] was 73 % of control and the T/C [6] was 79 % of control.

In the case of `S=c1nc[nH]c2c1ncn2C1CCCO1` (stereo unspecified), the T/C (dose: 12.0 mg/kg/injection, vehicle: carboxymethylcellulose (CMC)) is reported as 95 % of control, the T/C (dose: 25.0 mg/kg/injection, vehicle: carboxymethylcellulose (CMC)) is reported as 74 % of control and the T/C [7] is reported as 63 % of control.

In the case of `CCC(=O)NC1=C(N2CC2)C(=O)C(NC(=O)CC)=C(N2CC2)C1=O`, the T/C (dose: 0.6 mg/kg/injection, vehicle: saline) is reported as 97 % of control and the T/C (dose: 1.2 mg/kg/injection, vehicle: saline) is reported as 76 % of control.

With `CC(=O)Nc1ccc(NC(=O)c2ccc([As](O)O)cc2)cc1` the T/C [8] was 60 % of control, the T/C [9] was 77 % of control and the T/C (dose: 60.0 mg/kg/injection, vehicle: carboxymethylcellulose (CMC)) was 92 % of control. For the same compound, the T/C (dose: 120.0 mg/kg/injection, vehicle: carboxymethylcellulose (CMC)) was 91 % of control.

With `COc1ccccc1NC(=O)CSC(N)=O` the T/C [7] was 92 % of control, the T/C [10] was 86 % of control and the T/C (dose: 200.0 mg/kg/injection, vehicle: carboxymethylcellulose (CMC)) was 95 % of control. For the same compound, the T/C (dose: 400.0 mg/kg/injection, vehicle: carboxymethylcellulose (CMC)) was 38 % of control.

For `CCCCCCCCCCCC[n+]1ccc(C)cc1C`, the T/C (dose: 0.06 mg/kg/injection, vehicle: saline) was 71 % of control, the T/C (dose: 0.12 mg/kg/injection, vehicle: saline) was 75 % of control and the T/C (dose: 0.25 mg/kg/injection, vehicle: saline) was 85 % of control.

`C=CCn1c(=O)n(CC=C)c(=O)n(CC=C)c1=O` was tested, and the T/C (dose: 22.5 mg/kg/injection, vehicle: saline) was 76 % of control, the T/C (dose: 45.0 mg/kg/injection, vehicle: saline) was 63 % of control and the T/C (dose: 90.0 mg/kg/injection, vehicle: saline) was 63 % of control.

With `O=[N+]([O-])c1ccccc1CSc1ncnc2nc[nH]c12` the T/C [8] was 101 % of control, the T/C (dose: 31.0 mg/kg/injection, vehicle: carboxymethylcellulose (CMC)) was 99 % of control and the T/C [11] was 61 % of control.

With `[I][Hg][CH2]C1COCC([CH2][Hg][I])O1.[I][Hg][CH2]C1COCC([CH2][Hg][I])O1` (stereo unspecified) the T/C [12] was 83 % of control, the T/C [1] was 109 % of control and the T/C [2] was 91 % of control.

In the case of `CCC[CH2][Sn]([CH2]CCC)([CH2]CCC)[O]C(=O)CC[S][Sn]([CH2]CCC)([CH2]CCC)[CH2]CCC`, the T/C (dose: 0.75 mg/kg/injection, vehicle: saline) is reported as 111 % of control, the T/C (dose: 1.5 mg/kg/injection, vehicle: saline) is reported as 77 % of control and the T/C (dose: 3.0 mg/kg/injection, vehicle: saline) is reported as 100 % of control. For the same compound, the T/C (dose: 6.0 mg/kg/injection, vehicle: saline) was 83 % of control and 84 % of control, the T/C [13] was 92 % of control and the T/C (dose: 24.0 mg/kg/injection, vehicle: saline) was 93 % of control.

In the case of `CC(CCc1cccc2ccccc12)(C(=O)O)C(=O)O`, the T/C [10] is reported as 96 % of control.

With `N#CCSc1nc(N)nc2nc[nH]c12` the T/C (dose: 2.0 mg/kg/injection, vehicle: carboxymethylcellulose (CMC)) was 87 % of control, the T/C (dose: 4.0 mg/kg/injection, vehicle: carboxymethylcellulose (CMC)) was 102 % of control and the T/C (dose: 8.0 mg/kg/injection, vehicle: carboxymethylcellulose (CMC)) was 98 % of control. The T/C (dose: 16.0 mg/kg/injection, vehicle: carboxymethylcellulose (CMC)) was 99 % of control.

For `O=C(O)c1ccc(-c2ccccc2)cc1`, the T/C [7] was 95 % of control and the T/C [10] was 49 % of control.

For `CN(C)CCCN1c2ccccc2Sc2ccc(C(F)(F)F)cc21`, the T/C [13] was 84 % of control.

For `NC(N)=N/N=C/C=N/N=C(N)N`, the T/C [9] was 98 % of control.

With `CCCCCCCCCCCCCCCCC(C(=O)O)C(O)(CC(=O)O)C(=O)O` (stereo unspecified) the T/C (dose: 19.0 mg/kg/injection, vehicle: carboxymethylcellulose (CMC)) was 78 % of control and the T/C [3] was 87 % of control.

With `O=CC(O)CO` (stereo unspecified) the T/C [6] was 120 % of control and the T/C [11] was 108 % of control.

`CCN(CC)CCNc1ccc([N+](=O)[O-])c2sc3ccccc3c(=O)c12` was tested, and the T/C (dose: 20.0 mg/kg/injection, vehicle: saline) was 98 % of control and the T/C (dose: 40.0 mg/kg/injection, vehicle: saline) was 70 % of control.

With `CCOC1=CCCCC1` the T/C (dose: 62.0 mg/kg/injection, vehicle: carboxymethylcellulose (CMC)) was 94 % of control, the T/C [6] was 106 % of control and the T/C (dose: 125.0 mg/kg/injection, vehicle: saline) was 48 % of control. For the same compound, the T/C (dose: 250.0 mg/kg/injection, vehicle: saline) was 95 % of control and the T/C (dose: 500.0 mg/kg/injection, vehicle: saline) was 99 % of control.

For `CC(Cl)CN(Cc1cc(O)c(CN(CC(C)Cl)CC(C)Cl)cc1O)CC(C)Cl` (stereo unspecified), the T/C [5] was 64 % of control.

For `CN(C)c1ccc(/C=C\c2ccnc3ccccc23)cc1`, the T/C (dose: 1.25 mg/kg/injection, vehicle: carboxymethylcellulose (CMC)) was 98 % of control, the T/C (dose: 2.5 mg/kg/injection, vehicle: carboxymethylcellulose (CMC)) was 95 % of control and the T/C (dose: 5.0 mg/kg/injection, vehicle: carboxymethylcellulose (CMC)) was 96 % of control. For the same compound, the T/C [12] was 88 % of control and 89 % of control and the T/C [1] was 67 % of control.

For `CCC[CH2][Sn]1([CH2]CCC)[O]C(=O)C[S]1`, the T/C (dose: 0.39 mg/kg/injection, vehicle: saline) was 113 % of control, the T/C (dose: 0.78 mg/kg/injection, vehicle: saline) was 110 % of control and the T/C (dose: 1.56 mg/kg/injection, vehicle: saline) was 66 % of control.

With `c1ccc(CSc2ncnc3nc[nH]c23)nc1` the T/C (dose: 18.0 mg/kg/injection, vehicle: carboxymethylcellulose (CMC)) was 85 % of control, the T/C (dose: 37.0 mg/kg/injection, vehicle: carboxymethylcellulose (CMC)) was 89 % of control and the T/C [4] was 90 % of control and 104 % of control. For the same compound, the T/C (dose: 150.0 mg/kg/injection, vehicle: carboxymethylcellulose (CMC)) was 86 % of control.

For `CNC=O`, the T/C (dose: 50.0 mg/kg/injection, vehicle: saline) was 39 % of control, the T/C (dose: 100.0 mg/kg/injection, vehicle: saline) was 34 % of control and the T/C (dose: 200.0 mg/kg/injection, vehicle: saline) was 20 % of control.

For `C/C=C1\CN(C)[C@H]2Cc3c([nH]c4ccccc34)[C@@H](c3cc4[nH]c5c(c4cc3OC)CCN3C[C@H]4C[C@H](CC)[C@H]3[C@@]5(C(=O)OC)C4)C[C@H]1C2C(=O)OC` (stereo partly specified), the T/C (dose: 30.0 mg/kg/injection, vehicle: water) was 70 % of control.
